Data set [1] has as its target T1, hCap2_HR1 (HR1 domain of human Caprin-2) (Homo sapiens, UniProt Q6IMN6, R200E/R201E).
T1 construct: gene CAPRIN2; HR1 domain, aa S102-K351, E. coli BL21-CodonPlus-RIL, modified pET-28a with His tag and TEV site; His tag kept for lipid strip
T1 sequence (Q6IMN6 102-351 R200E/R201E): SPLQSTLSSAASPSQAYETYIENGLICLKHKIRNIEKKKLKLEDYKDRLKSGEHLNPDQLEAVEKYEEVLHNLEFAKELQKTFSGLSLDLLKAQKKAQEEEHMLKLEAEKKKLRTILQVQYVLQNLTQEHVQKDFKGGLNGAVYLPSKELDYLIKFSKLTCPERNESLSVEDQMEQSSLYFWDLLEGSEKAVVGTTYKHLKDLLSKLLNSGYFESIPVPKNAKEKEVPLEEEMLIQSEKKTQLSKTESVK
The data set is described as follows: biolayer interferometry (Octet Red96). The data set is classed as binding. As to conditions: labelled compound; biotinylated PI4P immobilised on streptavidin sensors; 20 mM Tris pH 7.5, 150 mM NaCl, 0.2 mM DTT, 0.05% Tween-20, 0.2 mg/ml BSA.

For data set [2], the target named is T2, hCap2_HR1 (HR1 domain of human Caprin-2) (Homo sapiens, UniProt Q6IMN6).
T2 construct: gene CAPRIN2; HR1 domain, aa S102-K351, E. coli BL21-CodonPlus-RIL, modified pET-28a with His tag and TEV site; His tag kept for lipid strip
T2 sequence (Q6IMN6 102-351): T1 sequence (Q6IMN6 102-351 R200E/R201E) with E99R, E100R
The data set is described as follows: biolayer interferometry (Octet Red96). In kind it is binding. Particulars: labelled compound; biotinylated PI4P immobilised on streptavidin sensors; 20 mM Tris pH 7.5, 150 mM NaCl, 0.2 mM DTT, 0.05% Tween-20, 0.2 mg/ml BSA. Background: BLI is a label-free optical method that tracks binding on a fibre tip over time.

Data set [3] deals with the molecule itself. The data set is described as follows: SEC; Superdex 200 with a calibration curve; estimated MW 66.45 kDa against theoretical 29.2 kDa.

The values below come from publication PMC11480233, “Structural insights into the Caprin-2 HR1 domain in canonical Wnt signaling” (The Journal of Biological Chemistry, 2024).

Where a chain is given by its changes, count along the chain named. Names may count otherwise.

Consider biotinylated PI4P, for which the dissociation constant Kd (as a rule, the free concentration of one partner at which half of the binding sites on the other are occupied at equilibrium, for simple one-to-one binding) worked out at 152 µM in data set [1] and 2 µM in data set [2].

B1: HR1 domain of human Caprin-2 (aa S102-K351) (domain or fragment, UniProt Q6IMN6 102-351, looked up)
chain: T1 sequence (Q6IMN6 102-351 R200E/R201E) with E99R, E100R
notes: Caprin-2, human, HR1 domain construct, residues S102-K351, cloned from full-length human Caprin-2; Modified pET-28a vector with a TEV site in place of the thrombin site; A SeMet triple mutant I217M/L251M/L301M of the same limits was used for phasing; also called hCap2_HR1; Cap2_HR1
In the case of B1, the stoichiometry N (commonly the number of molecules, sites or subunits per partner or assembly) in data set [3] is 2.
